Results from patent US10617693B2, “Methods of treating and/or preventing actinic keratosis” (Athenex, Inc., priority 2017, dated 2020).

Test system: subjects with AK on the face or scalp
Assay: Phase 2a study KX01-AK-002: local skin reactions (grade 0 not present to 4 worst) and adverse events, 0.5 mg KX-01 on 25 cm^2
Assay type: in vivo, human
Description: An ongoing Phase 2a, open-label, multicenter, activity and safety study of KX-01 administered topically in subjects with AK on the face or scalp is described herein. […] Secondary objectives are to assess the activity of KX-01 administered topically during Days 1-57 based on reduction of AK lesion counts from baseline, assess the safety and tolerability and pharmacokinetics, and contrast the dose regimens (5-day treatment with 3-day treatment) in terms of activity and safety in subjects with AK on the face or scalp. This uncontrolled, nonrandomized trial is being conducted at 16 investigational sites in the United States. Enrollment is sequential for 2 cohorts of approximately 80 subjects each. Enrollment is closed for Cohort 1 and ongoing for Cohort 2. The two treatment cohorts are summarized below: • Cohort 1: 0.5 mg KX-01 administered topically to a contiguous treatment area of 25 cm^2 with 4-8 clinically typical AK lesions for 5 consecutive days • Cohort 2: 0.5 mg KX-01 administered topically to a contiguous treatment area of 25 cm^2 with 4-8 clinically typical AK lesions for 3 consecutive days
0.5 mg KX-01 is administered topically to an area of 25 cm^2 on the face or scalp by site staff on treatment days. […] AK lesion counts are recorded at baseline, days 8, 15, 29, and 57. […] Standardized photography of treatment area is performed at baseline, day 8 and day 57. Plasma samples are being collected at preplanned time points on days 1 and 5 for Cohort 1, and on days 1 and 3 for Cohort 2.
Absence or presence of hyperpigmentation, hypopigmentation and scarring are also assessed. Application site reactions not classified as LSRs are reported as AEs. […] LSRs and AEs are reported separately. All LSRs, pigmentation, and scarring in the treatment area will be followed to resolution or stabilization.
The range of possible composite scores is 0-24.
The Phase 2a trial described in Example 2a was completed with 84 eligible subjects enrolled in each of two cohorts: one cohort was subjected to the treatment for 5 consecutive days, and the other cohort was subjected to the treatment for 3 consecutive days. The results are described below and in FIG. 5.

For `O=C(Cc1ccc(-c2ccc(OCCN3CCOCC3)cc2)cn1)NCc1ccccc1` [KX-01], the “Crusting maximal post-baseline grade 0, subjects (%)” value (3-day, N = 84) was 58 (69%), the “Crusting maximal post-baseline grade 1, subjects (%)” value (3-day, N = 84) was 16 (19%) and the “Crusting maximal post-baseline grade 2, subjects (%)” value (3-day, N = 84) was 9 (11%). For the same compound, the “Crusting maximal post-baseline grade 3, subjects (%)” value (3-day, N = 84) was 1 (1%), the “Crusting maximal post-baseline grade 4, subjects (%)” value (3-day, N = 84) was 0 (0%) and the “Erosion/Ulceration maximal post-baseline grade 0, subjects (%)” value (3-day, N = 84) was 79 (94%). For the same compound, the “Erosion/Ulceration maximal post-baseline grade 1, subjects (%)” value (3-day, N = 84) was 5 (6%), the “Erosion/Ulceration maximal post-baseline grade 2, subjects (%)” value (3-day, N = 84) was 0 (0%) and the “Erosion/Ulceration maximal post-baseline grade 3, subjects (%)” value (3-day, N = 84) was 0 (0%). For the same compound, the “Erosion/Ulceration maximal post-baseline grade 4, subjects (%)” value (3-day, N = 84) was 0 (0%), the “Erythema maximal post-baseline grade 0, subjects (%)” value (3-day, N = 84) was 30 (36%) and the “Erythema maximal post-baseline grade 1, subjects (%)” value (3-day, N = 84) was 22 (26%). The “Erythema maximal post-baseline grade 2, subjects (%)” value (3-day, N = 84) was 26 (31%), the “Erythema maximal post-baseline grade 3, subjects (%)” value (3-day, N = 84) was 6 (7%) and the “Erythema maximal post-baseline grade 4, subjects (%)” value (3-day, N = 84) was 0 (0%). The “Flaking/Scaling maximal post-baseline grade 0, subjects (%)” value (3-day, N = 84) was 39 (46%), the “Flaking/Scaling maximal post-baseline grade 1, subjects (%)” value (3-day, N = 84) was 18 (21%) and the “Flaking/Scaling maximal post-baseline grade 2, subjects (%)” value (3-day, N = 84) was 19 (23%). For the same compound, the “Flaking/Scaling maximal post-baseline grade 3, subjects (%)” value (3-day, N = 84) was 8 (10%), the “Flaking/Scaling maximal post-baseline grade 4, subjects (%)” value (3-day, N = 84) was 0 (0%) and the “Swelling maximal post-baseline grade 0, subjects (%)” value (3-day, N = 84) was 76 (90%). For the same compound, the “Swelling maximal post-baseline grade 1, subjects (%)” value (3-day, N = 84) was 8 (10%), the “Swelling maximal post-baseline grade 2, subjects (%)” value (3-day, N = 84) was 0 (0%) and the “Swelling maximal post-baseline grade 3, subjects (%)” value (3-day, N = 84) was 0 (0%). For the same compound, the “Swelling maximal post-baseline grade 4, subjects (%)” value (3-day, N = 84) was 0 (0%), the “Vesiculation/Pustulation maximal post-baseline grade 0, subjects (%)” value (3-day, N = 84) was 83 (99%) and the “Vesiculation/Pustulation maximal post-baseline grade 1, subjects (%)” value (3-day, N = 84) was 0 (0%). The “Vesiculation/Pustulation maximal post-baseline grade 2, subjects (%)” value (3-day, N = 84) was 1 (1%), the “Vesiculation/Pustulation maximal post-baseline grade 3, subjects (%)” value (3-day, N = 84) was 0 (0%) and the “Vesiculation/Pustulation maximal post-baseline grade 4, subjects (%)” value (3-day, N = 84) was 0 (0%). For the same compound, the “Local safety profile compared to Picato” value (5-day treatment, cross-study) was “more benign local safety profile”, the “Crusting maximal post-baseline grade 0, subjects (%)” value (5-day, N = 84) was 51 (61%) and the “Crusting maximal post-baseline grade 1, subjects (%)” value (5-day, N = 84) was 25 (30%). For the same compound, the “Crusting maximal post-baseline grade 2, subjects (%)” value (5-day, N = 84) was 8 (10%), the “Crusting maximal post-baseline grade 3, subjects (%)” value (5-day, N = 84) was 0 (0%) and the “Crusting maximal post-baseline grade 4, subjects (%)” value (5-day, N = 84) was 0 (0%). The “Erosion/Ulceration maximal post-baseline grade 0, subjects (%)” value (5-day, N = 84) was 71 (85%), the “Erosion/Ulceration maximal post-baseline grade 1, subjects (%)” value (5-day, N = 84) was 12 (14%) and the “Erosion/Ulceration maximal post-baseline grade 2, subjects (%)” value (5-day, N = 84) was 1 (1%). The “Erosion/Ulceration maximal post-baseline grade 3, subjects (%)” value (5-day, N = 84) was 0 (0%), the “Erosion/Ulceration maximal post-baseline grade 4, subjects (%)” value (5-day, N = 84) was 0 (0%) and the “Erythema maximal post-baseline grade 0, subjects (%)” value (5-day, N = 84) was 15 (18%). The “Erythema maximal post-baseline grade 1, subjects (%)” value (5-day, N = 84) was 16 (19%), the “Erythema maximal post-baseline grade 2, subjects (%)” value (5-day, N = 84) was 35 (42%) and the “Erythema maximal post-baseline grade 3, subjects (%)” value (5-day, N = 84) was 17 (20%). For the same compound, the “Erythema maximal post-baseline grade 4, subjects (%)” value (5-day, N = 84) was 1 (1%), the “Flaking/Scaling maximal post-baseline grade 0, subjects (%)” value (5-day, N = 84) was 33 (39%) and the “Flaking/Scaling maximal post-baseline grade 1, subjects (%)” value (5-day, N = 84) was 10 (12%). For the same compound, the “Flaking/Scaling maximal post-baseline grade 2, subjects (%)” value (5-day, N = 84) was 24 (29%), the “Flaking/Scaling maximal post-baseline grade 3, subjects (%)” value (5-day, N = 84) was 16 (19%) and the “Flaking/Scaling maximal post-baseline grade 4, subjects (%)” value (5-day, N = 84) was 1 (1%). For the same compound, the “Swelling maximal post-baseline grade 0, subjects (%)” value (5-day, N = 84) was 66 (79%), the “Swelling maximal post-baseline grade 1, subjects (%)” value (5-day, N = 84) was 16 (19%) and the “Swelling maximal post-baseline grade 2, subjects (%)” value (5-day, N = 84) was 1 (1%). The “Swelling maximal post-baseline grade 3, subjects (%)” value (5-day, N = 84) was 1 (1%), the “Swelling maximal post-baseline grade 4, subjects (%)” value (5-day, N = 84) was 0 (0%) and the “Vesiculation/Pustulation maximal post-baseline grade 0, subjects (%)” value (5-day, N = 84) was 80 (95%). For the same compound, the “Vesiculation/Pustulation maximal post-baseline grade 1, subjects (%)” value (5-day, N = 84) was 4 (5%), the “Vesiculation/Pustulation maximal post-baseline grade 2, subjects (%)” value (5-day, N = 84) was 0 (0%) and the “Vesiculation/Pustulation maximal post-baseline grade 3, subjects (%)” value (5-day, N = 84) was 0 (0%). For the same compound, the “Vesiculation/Pustulation maximal post-baseline grade 4, subjects (%)” value (5-day, N = 84) was 0 (0%), the “Crusting maximal post-baseline grade 0, subjects (%)” value (5-day, interim N = 67) was 41 (61%) and the “Crusting maximal post-baseline grade 1, subjects (%)” value (5-day, interim N = 67) was 20 (30%). For the same compound, the “Crusting maximal post-baseline grade 2, subjects (%)” value (5-day, interim N = 67) was 6 (9%), the “Crusting maximal post-baseline grade 3, subjects (%)” value (5-day, interim N = 67) was 0 (0%) and the “Crusting maximal post-baseline grade 4, subjects (%)” value (5-day, interim N = 67) was 0 (0%). The “Erosion/Ulceration maximal post-baseline grade 0, subjects (%)” value (5-day, interim N = 67) was 57 (85%), the “Erosion/Ulceration maximal post-baseline grade 1, subjects (%)” value (5-day, interim N = 67) was 9 (13%) and the “Erosion/Ulceration maximal post-baseline grade 2, subjects (%)” value (5-day, interim N = 67) was 1 (1%). The “Erosion/Ulceration maximal post-baseline grade 3, subjects (%)” value (5-day, interim N = 67) was 0 (0%), the “Erosion/Ulceration maximal post-baseline grade 4, subjects (%)” value (5-day, interim N = 67) was 0 (0%) and the “Erythema maximal post-baseline grade 0, subjects (%)” value (5-day, interim N = 67) was 7 (10%). The “Erythema maximal post-baseline grade 1, subjects (%)” value (5-day, interim N = 67) was 16 (24%), the “Erythema maximal post-baseline grade 2, subjects (%)” value (5-day, interim N = 67) was 32 (48%) and the “Erythema maximal post-baseline grade 3, subjects (%)” value (5-day, interim N = 67) was 12 (18%). The “Erythema maximal post-baseline grade 4, subjects (%)” value (5-day, interim N = 67) was 0 (0%), the “Flaking/Scaling maximal post-baseline grade 0, subjects (%)” value (5-day, interim N = 67) was 20 (30%) and the “Flaking/Scaling maximal post-baseline grade 1, subjects (%)” value (5-day, interim N = 67) was 14 (21%). For the same compound, the “Flaking/Scaling maximal post-baseline grade 2, subjects (%)” value (5-day, interim N = 67) was 20 (30%), the “Flaking/Scaling maximal post-baseline grade 3, subjects (%)” value (5-day, interim N = 67) was 13 (19%) and the “Flaking/Scaling maximal post-baseline grade 4, subjects (%)” value (5-day, interim N = 67) was 0 (0%). For the same compound, the “Swelling maximal post-baseline grade 0, subjects (%)” value (5-day, interim N = 67) was 53 (79%), the “Swelling maximal post-baseline grade 1, subjects (%)” value (5-day, interim N = 67) was 12 (18%) and the “Swelling maximal post-baseline grade 2, subjects (%)” value (5-day, interim N = 67) was 1 (1%). For the same compound, the “Swelling maximal post-baseline grade 3, subjects (%)” value (5-day, interim N = 67) was 1 (1%), the “Swelling maximal post-baseline grade 4, subjects (%)” value (5-day, interim N = 67) was 0 (0%) and the “Vesiculation/Pustulation maximal post-baseline grade 0, subjects (%)” value (5-day, interim N = 67) was 64 (96%). For the same compound, the “Vesiculation/Pustulation maximal post-baseline grade 1, subjects (%)” value (5-day, interim N = 67) was 3 (4%), the “Vesiculation/Pustulation maximal post-baseline grade 2, subjects (%)” value (5-day, interim N = 67) was 0 (0%) and the “Vesiculation/Pustulation maximal post-baseline grade 3, subjects (%)” value (5-day, interim N = 67) was 0 (0%). The “Vesiculation/Pustulation maximal post-baseline grade 4, subjects (%)” value (5-day, interim N = 67) was 0 (0%), the “Day from which LSRs were generally observable” value (Cohort 1 (5-day)) was 3 days and the Subjects with erosion/ulceration (Cohort 1 (5-day), 67 subjects with day 57 visit) was 9.
